Data from the supplement of paper PMC11208160.

test: recombinant barcode read abundance after kanamycin selection (control-corrected) (log10(CPM+1)); higher = more efficient recombination; sequences stand for … in AGTGCAGAGAAAATCGGCCAGTTTTCTCTGCCTGCAGTCCGCATGCCGT…AGATTTATGCAGCGGACTGCCTTTCTCCCAAAGTGATAAACCGGACAGTATCATGGACCGGTTTTCCCGGTAATCCGTATTTGCAAGGTTGGTTTCACT; site = the 11-nt target
Summary of the method: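 The screen was pooled in E. coli and paired targets with IS621 bridge RNA target-binding loops. Recombination efficiency is taken from barcode counts per million at recombinant junctions, averaged and adjusted against the control. Values, in the form log10(CPM+1), come from duplicate plating on chloramphenicol/ampicillin LB agar or on chloramphenicol/ampicillin/kanamycin with 0.1 mM IPTG.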
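Also: IS621 recombinase and bridge RNA in Escherichia coli cells.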

Row | Sequence | recombinant barcode read abundance (log10)
1 | TTAGACCCTTGGGTTCTAACCTGTTGCAG (site AGGTCTACTTG) | 0.0942
2 | TTAGACCCTTGGGTTCTAACCTGTTGCAG (site TTAGACCCTCT) | 3.46
3 | TTAGACCCTTGGGTTCTAACCTGTTGCCT (site ATAGACCCTAG) | 1.3
4 | TTAGACCCTTGGGTTCTAACCTGTTGCCT (site CTAGACCCTAG) | 1.11
5 | TTAGACCCTTGGGTTCTAACCTGTTGCCT (site GTAGACCCTAG) | 0.341
6 | TTAGACCCTTGGGTTCTAACCTGTTGCCT (site TTAGACCCTAG) | 2.99
7 | TTAGACTCTTGGGTTCTAACCTGTTGCCT (site TTAGACTCTAG) | 2.48
8 | TTAGACTCTTGGGTTCTAACCTGTTGCCT (site TTCGACGCTAG) | 0.172
9 | TTAGACTCTTGGGTTCTAACCTGTTGCTA (site TTAGACTCTTA) | 2.36
10 | TTAGACTCTTGGGTTCTAACCTGTTGCTA (site TTAGACTCTTG) | 1.25
11 | TTAGAGACTTGGGTTCTAACCTGTTGCCT (site TTAGAGACTAG) | 2.32
12 | TTAGAGACTTGGGTTCTAACCTGTTGCCT (site TTAGAGCCTAG) | 0.303
13 | TTAGAGACTTGGGTTCTAACCTGTTGCCT (site TTAGAGGCTAG) | 1.4
14 | TTAGAGACTTGGGTTCTAACCTGTTGCCT (site TTAGAGTCTAG) | 0.195
15 | TTAGATCCTTGGGTTCTAACCTGTTGCAT (site TTAGATCCTAT) | 1.62
16 | TTAGATCCTTGGGTTCTAACCTGTTGCAT (site TTAGGTCCTCT) | 0.00789
17 | TTAGGGCCTTGGGTTCTAACCTGTTGCCT (site TTAGGGACTAG) | 0.0406
18 | TTAGGGCCTTGGGTTCTAACCTGTTGCCT (site TTAGGGCCTAG) | 0.719
19 | TTAGGGCCTTGGGTTCTAACCTGTTGCCT (site TTAGGGGCTAG) | 0.0469
20 | TTAGGGCCTTGGGTTCTAACCTGTTGCCT (site TTAGGGTCTAG) | 0.0494
21 | TTAGGTCCTTGGGTTCTAACCTGTTGCTT (site TTAAGTCCTAT) | 0.357
22 | TTAGGTCCTTGGGTTCTAACCTGTTGCTT (site TTAGGTCCTAA) | 1.64

Row | Sequence | recombinant barcode read abundance (log10)
23 | TTAGTAGCTTGGGTTCTAACCTGTTGCCT (site TTAGTAGCTAG) | 1.84
24 | TTAGTAGCTTGGGTTCTAACCTGTTGCCT (site TTAGTCGCTAG) | 0.0769
25 | TTAGTAGCTTGGGTTCTAACCTGTTGCCT (site TTAGTGGCTAG) | 0.0632
26 | TTAGTAGCTTGGGTTCTAACCTGTTGCCT (site TTAGTTGCTAG) | 0.0874
27 | TTAGTCCCTTGGGTTCTAACCTGTTGCCT (site TTAGTACCTAG) | 0.113
28 | TTAGTCCCTTGGGTTCTAACCTGTTGCCT (site TTAGTCCCTAG) | 2.42
29 | TTAGTCCCTTGGGTTCTAACCTGTTGCCT (site TTAGTGCCTAG) | 0.202
30 | TTAGTCCCTTGGGTTCTAACCTGTTGCCT (site TTAGTTCCTAG) | 0.0847
31 | TTAGTGGCTTGGGTTCTAACCTGTTGCCT (site TTAGTAGCTAG) | 0.607
32 | TTAGTGGCTTGGGTTCTAACCTGTTGCCT (site TTAGTCGCTAG) | 0.0499
33 | TTAGTGGCTTGGGTTCTAACCTGTTGCCT (site TTAGTGGCTAG) | 0.978
34 | TTAGTGGCTTGGGTTCTAACCTGTTGCCT (site TTAGTTGCTAG) | 0.0338
35 | TTATCCGCTTGGGTTCTAACCTGTTGCCT (site CGTAGACCTTA) | 0.0341
36 | TTATCCGCTTGGGTTCTAACCTGTTGCCT (site TTATCCGCTAG) | 1.77
37 | TTATCTCCTTGGGTTCTAACCTGTTGCTT (site TCGTCTCCTAA) | 0.0381
38 | TTATCTCCTTGGGTTCTAACCTGTTGCTT (site TTATCTCCTAA) | 0.205
39 | TTCAAAACTTGGGTTCTAACCTGTTGCCT (site TTCAAAACTAG) | 0.103
40 | TTCAAAACTTGGGTTCTAACCTGTTGCCT (site TTCAAACCTAG) | 0.0651
41 | TTCAAAACTTGGGTTCTAACCTGTTGCCT (site TTCAAAGCTAG) | 0.0504
42 | TTCAAAACTTGGGTTCTAACCTGTTGCCT (site TTCAAATCTAG) | 0.0229
43 | TTCAAAGCTTGGGTTCTAACCTGTTGCCT (site TTCAAAACTAG) | 0.0225
44 | TTCAAAGCTTGGGTTCTAACCTGTTGCCT (site TTCAAACCTAG) | 0.0449

Row | Sequence | recombinant barcode read abundance (log10)
45 | TTCAAAGCTTGGGTTCTAACCTGTTGCCT (site TTCAAAGCTAG) | 0.0407
46 | TTCAAAGCTTGGGTTCTAACCTGTTGCCT (site TTCAAATCTAG) | 0.0721
47 | TTCACAGCTTGGGTTCTAACCTGTTGCCT (site TTCACACCTAG) | 0.0537
48 | TTCACAGCTTGGGTTCTAACCTGTTGCCT (site TTCACAGCTAG) | 0.133
49 | TTCACGCCTTGGGTTCTAACCTGTTGCCT (site TTCACGCCTAG) | 0.187
50 | TTCACGCCTTGGGTTCTAACCTGTTGCCT (site TTCCCGCCTAG) | 0.127
51 | TTCACGCCTTGGGTTCTAACCTGTTGCCT (site TTCGCGCCTAG) | 0.0353
52 | TTCACGCCTTGGGTTCTAACCTGTTGCCT (site TTCTCGCCTAG) | 0.214
53 | TTCACGGCTTGGGTTCTAACCTGTTGCCT (site TTAACGGCTAG) | 0.223
54 | TTCACGGCTTGGGTTCTAACCTGTTGCCT (site TTCACGGCTAG) | 0.0164
55 | TTCCAATCTTGGGTTCTAACCTGTTGCCA (site TGCCAATCTAG) | 0.0654
56 | TTCCAATCTTGGGTTCTAACCTGTTGCCA (site TTCCAATCTTG) | 0.713
57 | TTCCCCACTTGGGTTCTAACCTGTTGCCT (site AATATAGCTTA) | 0.115
58 | TTCCCCACTTGGGTTCTAACCTGTTGCCT (site TTCCCCACTAG) | 1.11
59 | TTCCCGCCTTGGGTTCTAACCTGTTGCCT (site TTCACGCCTAG) | 0.0618
60 | TTCCCGCCTTGGGTTCTAACCTGTTGCCT (site TTCCCGCCTAG) | 0.543
61 | TTCCCGCCTTGGGTTCTAACCTGTTGCCT (site TTCGCGCCTAG) | 0.489
62 | TTCCCGCCTTGGGTTCTAACCTGTTGCCT (site TTCTCGCCTAG) | 0.155
63 | TTCCGAGCTTGGGTTCTAACCTGTTGCGG (site TGTCGAGCTCC) | 0.0848
64 | TTCCGAGCTTGGGTTCTAACCTGTTGCGG (site TTCCGAGCTCC) | 1.01
65 | TTCGAAACTTGGGTTCTAACCTGTTGCGT (site TCCGAGACTAC) | 0.221
66 | TTCGAAACTTGGGTTCTAACCTGTTGCGT (site TTCGAAACTAC) | 1.46

Row | Sequence | recombinant barcode read abundance (log10)
67 | TTCGCATCTTGGGTTCTAACCTGTTGCTT (site CCAAGGCCTCG) | 0.209
68 | TTCGCATCTTGGGTTCTAACCTGTTGCTT (site TTCGCATCTAA) | 0.178
69 | TTCGTAGCTTGGGTTCTAACCTGTTGCCT (site TTCGTAGCTAC) | 0.0736
70 | TTCGTAGCTTGGGTTCTAACCTGTTGCCT (site TTCGTAGCTAG) | 1.22
71 | TTCGTTGCTTGGGTTCTAACCTGTTGCCT (site ATCGTTGCTAG) | 0.0494
72 | TTCGTTGCTTGGGTTCTAACCTGTTGCCT (site CTCGTTGCTAG) | 0.41
73 | TTCGTTGCTTGGGTTCTAACCTGTTGCCT (site GTCGTTGCTAG) | 0.0105
74 | TTCGTTGCTTGGGTTCTAACCTGTTGCCT (site TTCGTTGCTAG) | 0.302
75 | TTCTAGACTTGGGTTCTAACCTGTTGCGG (site TCCTAGACTCC) | 0.189
76 | TTCTAGACTTGGGTTCTAACCTGTTGCGG (site TTCTAGACTCC) | 1.94
77 | TTCTATCCTTGGGTTCTAACCTGTTGCCT (site TTCTATCCTAG) | 0.486
78 | TTCTATCCTTGGGTTCTAACCTGTTGCCT (site TTCTCTCCTAG) | 0.286
79 | TTCTATCCTTGGGTTCTAACCTGTTGCCT (site TTCTGTCCTAG) | 0.0469
80 | TTCTATCCTTGGGTTCTAACCTGTTGCCT (site TTCTTTCCTAG) | 0.094
81 | TTCTATGCTTGGGTTCTAACCTGTTGCGT (site AAGCGCTCTCA) | 0.0654
82 | TTCTATGCTTGGGTTCTAACCTGTTGCGT (site TTCTATGCTAC) | 0.131
83 | TTCTGAGCTTGGGTTCTAACCTGTTGCCT (site TTCTGAGCTAG) | 0.184
84 | TTCTGAGCTTGGGTTCTAACCTGTTGCCT (site TTCTGCGCTAG) | 0.0635
85 | TTCTGAGCTTGGGTTCTAACCTGTTGCCT (site TTCTGGGCTAG) | 0.115
86 | TTCTGAGCTTGGGTTCTAACCTGTTGCCT (site TTCTGTGCTAG) | 0.0128
